Where a SMILES comes first, the peptide text is derived from it.
Experiments:
Test in all cases: microbe, parasite or virus in culture
C. glabrata NCPF 8018 = assay type: cell-based; settings: C. glabrata NCPF 8018
Outline: (§1)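 Peptides 128→2 μg/mL, 2-fold series; inoculum ~5 × 10^5 CFU/mL from overnight culture (OD600 0.01, mixed 1:1). MHB non-cation-adjusted for bacteria, RPMI 1640 + 2% glucose for fungi. 37 °C, 20 h, OD600. MIC50/MIC90 at 50%/90% inhibition; n ≥ 3.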

C. albicans NCPF 3281 = assay type: cell-based; settings: C. albicans NCPF 3281
Outline: as §1

C. krusei NCPF 3876 = assay type: cell-based; settings: C. krusei NCPF 3876
Outline: as §1

C. tropicalis NCPF 8760 = assay type: cell-based; settings: C. tropicalis NCPF 8760
Outline: as §1

[1] = test system: C. parapsilosis NCPF 3209; assay type: cell-based; settings: C. parapsilosis NCPF 3209
Outline: as §1

E. coli LEC001 = assay type: cell-based, Escherichia coli; settings: E. coli LEC001 (R)
Outline: as §1

E. coli NCTC 12923 = assay type: cell-based, Escherichia coli; settings: E. coli NCTC 12923 (S)
Outline: as §1

K. pneumoniae NCTC 13368 = assay type: cell-based, Klebsiella pneumoniae; settings: K. pneumoniae NCTC 13368 (R)
Outline: as §1

K. pneumoniae M6 = assay type: cell-based, Klebsiella pneumoniae; settings: K. pneumoniae M6 (S)
Outline: as §1

A. baumannii ATCC 17978 = assay type: cell-based, Acinetobacter baumannii; settings: A. baumannii ATCC 17978 (S)
Outline: as §1

A. baumannii AYE = assay type: cell-based, Acinetobacter baumannii; settings: A. baumannii AYE (R)
Outline: as §1

C. auris TDG 1912 = assay type: cell-based, Candida auris; settings: C. auris TDG 1912
Outline: as §1

[2] = test system: S. aureus (MRSA) NCTC 13616; assay type: cell-based, Staphylococcus aureus; settings: S. aureus (MRSA) NCTC 13616 (R)
Outline: as §1

S. aureus (MRSA) 1199B = assay type: cell-based, Staphylococcus aureus; settings: S. aureus (MRSA) 1199B (R)
Outline: as §1

S. aureus (MRSA) USA300 = assay type: cell-based, Staphylococcus aureus; settings: S. aureus (MRSA) USA300 (R)
Outline: as §1

[3] = test system: S. aureus (MSSA) ATCC 9144; assay type: cell-based, Staphylococcus aureus; settings: S. aureus (MSSA) ATCC 9144 (S)
Outline: as §1

[4] = 50% growth inhibition, RPMI 1640 + 2% glucose, 37 °C, 20 h
[5] = 90% growth inhibition, RPMI 1640 + 2% glucose, 37 °C, 20 h
[6] = MHB, 37 °C, 20 h, OD600, min. three biological repeats
[7] = MHB, ~5×10^5 CFU/mL, 37 °C, 20 h, OD600, min. three biological repeats
[8] = 50% growth inhibition, RPMI 1640 + 2% glucose, 37 °C, 20 h, OD600
[9] = 90% growth inhibition, RPMI 1640 + 2% glucose, 37 °C, 20 h, OD600

CC[C@H](C)[C@H](NC(=O)[C@@H](N)Cc1c[nH]c2ccccc12)C(=O)N[C@@H](CCCCN)C(=O)N[C@@H](CO)C(=O)N[C@H](C(=O)N[C@@H](C)C(=O)N[C@@H](CCCCN)C(=O)N[C@@H](CCCCN)C(N)=O)[C@@H](C)O [Opis8a] (H-WIKSTAKK-NH2)
Modal MIC50 (C. glabrata NCPF 8018; [4]): > 128 µg/mL | Modal MIC90 (C. glabrata NCPF 8018; [5]): > 128 µg/mL | Modal MIC50 (C. glabrata NCPF 8018; shown in µM): > 133.2 µM | Modal MIC90 (C. glabrata NCPF 8018; shown in µM): > 133.2 µM | Modal MIC50 (C. albicans NCPF 3281; [4]): > 128 µg/mL | Modal MIC90 (C. albicans NCPF 3281; [5]): > 128 µg/mL | Modal MIC50 (C. albicans NCPF 3281; shown in µM): > 133.2 µM | Modal MIC90 (C. albicans NCPF 3281; shown in µM): > 133.2 µM | Modal MIC50 (C. krusei NCPF 3876; [4]): > 128 µg/mL | Modal MIC90 (C. krusei NCPF 3876; [5]): > 128 µg/mL | Modal MIC50 (C. krusei NCPF 3876; shown in µM): > 133.2 µM | Modal MIC90 (C. krusei NCPF 3876; shown in µM): > 133.2 µM | Modal MIC50 (C. tropicalis NCPF 8760; [4]): > 128 µg/mL | Modal MIC90 (C. tropicalis NCPF 8760; [5]): > 128 µg/mL | Modal MIC50 (C. tropicalis NCPF 8760; shown in µM): > 133.2 µM | Modal MIC90 (C. tropicalis NCPF 8760; shown in µM): > 133.2 µM | Modal MIC50 [1, 4]: > 128 µg/mL | Modal MIC90 [1, 5]: > 128 µg/mL | Modal MIC50 ([1]; shown in µM): > 133.2 µM | Modal MIC90 ([1]; shown in µM): > 133.2 µM | Modal MIC (E. coli LEC001; [6]): > 128 µg/mL | Modal MIC (E. coli LEC001; shown in µM): > 133.2 µM | Modal MIC (E. coli NCTC 12923; [7]): > 128 µg/mL | Modal MIC (E. coli NCTC 12923; shown in µM): > 133.2 µM | Modal MIC (K. pneumoniae NCTC 13368; [6]): > 128 µg/mL | Modal MIC (K. pneumoniae NCTC 13368; shown in µM): > 133.2 µM | Modal MIC (K. pneumoniae M6; [6]): > 128 µg/mL | Modal MIC (K. pneumoniae M6; shown in µM): > 133.2 µM | Modal MIC (A. baumannii ATCC 17978; [6]): > 128 µg/mL | Modal MIC (A. baumannii ATCC 17978; shown in µM): > 133.2 µM | Modal MIC (A. baumannii AYE; [6]): > 128 µg/mL | Modal MIC (A. baumannii AYE; shown in µM): > 133.2 µM | Modal MIC50 (C. auris TDG 1912; [8]): > 128 µg/mL | Modal MIC90 (C. auris TDG 1912; [9]): > 128 µg/mL | Modal MIC50 (C. auris TDG 1912; shown in µM): > 133.2 µM | Modal MIC90 (C. auris TDG 1912; shown in µM): > 133.2 µM | Modal MIC [2, 6]: > 128 µg/mL | Modal MIC ([2]; shown in µM): > 133.2 µM | Modal MIC (S. aureus (MRSA) 1199B; [6]): > 128 µg/mL | Modal MIC (S. aureus (MRSA) 1199B; shown in µM): > 133.2 µM | Modal MIC (S. aureus (MRSA) USA300; [6]): > 128 µg/mL | Modal MIC (S. aureus (MRSA) USA300; shown in µM): > 133.2 µM | Modal MIC [3, 6]: > 128 µg/mL | Modal MIC ([3]; shown in µM): > 133.2 µM

CC[C@H](C)[C@H](N)C(=O)N[C@@H](CCCNC(=N)N)C(=O)NCC(=O)N[C@@H](Cc1ccc(O)cc1)C(=O)N[C@@H](CCCCN)C(=O)NCC(=O)NCC(=O)N[C@@H](Cc1ccc(O)cc1)C(=O)N[C@@H](CS)C(=O)N[C@@H](CCCCN)C(N)=O [Os(3-12)a] (H-IRGYKGGYCK-NH2)
Modal MIC50 (C. glabrata NCPF 8018; [4]): > 128 µg/mL | Modal MIC90 (C. glabrata NCPF 8018; [5]): > 128 µg/mL | Modal MIC50 (C. glabrata NCPF 8018; shown in µM): > 112 µM | Modal MIC90 (C. glabrata NCPF 8018; shown in µM): > 112 µM | Modal MIC50 (C. albicans NCPF 3281; [4]): > 128 µg/mL | Modal MIC90 (C. albicans NCPF 3281; [5]): > 128 µg/mL | Modal MIC50 (C. albicans NCPF 3281; shown in µM): > 112 µM | Modal MIC90 (C. albicans NCPF 3281; shown in µM): > 112 µM | Modal MIC50 (C. krusei NCPF 3876; [4]): > 128 µg/mL | Modal MIC90 (C. krusei NCPF 3876; [5]): > 128 µg/mL | Modal MIC50 (C. krusei NCPF 3876; shown in µM): > 112 µM | Modal MIC90 (C. krusei NCPF 3876; shown in µM): > 112 µM | Modal MIC50 (C. tropicalis NCPF 8760; [4]): > 128 µg/mL | Modal MIC90 (C. tropicalis NCPF 8760; [5]): > 128 µg/mL | Modal MIC50 (C. tropicalis NCPF 8760; shown in µM): > 112 µM | Modal MIC90 (C. tropicalis NCPF 8760; shown in µM): > 112 µM | Modal MIC50 [1, 4]: > 128 µg/mL | Modal MIC90 [1, 5]: > 128 µg/mL | Modal MIC50 ([1]; shown in µM): > 112 µM | Modal MIC90 ([1]; shown in µM): > 112 µM | Modal MIC (E. coli LEC001; [6]): > 128 µg/mL | Modal MIC (E. coli LEC001; shown in µM): > 112 µM | Modal MIC (E. coli NCTC 12923; [7]): > 128 µg/mL | Modal MIC (E. coli NCTC 12923; shown in µM): > 112 µM | Modal MIC (K. pneumoniae NCTC 13368; [6]): > 128 µg/mL | Modal MIC (K. pneumoniae NCTC 13368; shown in µM): > 112 µM | Modal MIC (K. pneumoniae M6; [6]): > 128 µg/mL | Modal MIC (K. pneumoniae M6; shown in µM): > 112 µM | Modal MIC (A. baumannii ATCC 17978; [6]): > 128 µg/mL | Modal MIC (A. baumannii ATCC 17978; shown in µM): > 112 µM | Modal MIC (A. baumannii AYE; [6]): > 128 µg/mL | Modal MIC (A. baumannii AYE; shown in µM): > 112 µM | Modal MIC50 (C. auris TDG 1912; [8]): > 128 µg/mL | Modal MIC90 (C. auris TDG 1912; [9]): > 128 µg/mL | Modal MIC50 (C. auris TDG 1912; shown in µM): > 112 µM | Modal MIC90 (C. auris TDG 1912; shown in µM): > 112 µM | Modal MIC [2, 6]: > 128 µg/mL | Modal MIC ([2]; shown in µM): > 112 µM | Modal MIC (S. aureus (MRSA) 1199B; [6]): > 128 µg/mL | Modal MIC (S. aureus (MRSA) 1199B; shown in µM): > 112 µM | Modal MIC (S. aureus (MRSA) USA300; [6]): > 128 µg/mL | Modal MIC (S. aureus (MRSA) USA300; shown in µM): > 112 µM | Modal MIC [3, 6]: > 128 µg/mL | Modal MIC ([3]; shown in µM): > 112 µM

Source: publication PMC11191095, “QSAR Reveals Decreased Lipophilicity of Polar Residues Determines the Selectivity of Antimicrobial Peptide Activity” (ACS Omega, 2024)
